The source of these data is patent publication US8435978B2, “Substituted sulfonamide compounds” (Gruenenthal GmbH, priority 2006, dated 2013).

One assay addresses T1, B1R receptor of the rat (Rattus norvegicus, UniProt P97583).
T1 construct: host or cells: CHO K1 cells (Chinese hamster ovary), stably transfected
T1 sequence (P97583 1-337): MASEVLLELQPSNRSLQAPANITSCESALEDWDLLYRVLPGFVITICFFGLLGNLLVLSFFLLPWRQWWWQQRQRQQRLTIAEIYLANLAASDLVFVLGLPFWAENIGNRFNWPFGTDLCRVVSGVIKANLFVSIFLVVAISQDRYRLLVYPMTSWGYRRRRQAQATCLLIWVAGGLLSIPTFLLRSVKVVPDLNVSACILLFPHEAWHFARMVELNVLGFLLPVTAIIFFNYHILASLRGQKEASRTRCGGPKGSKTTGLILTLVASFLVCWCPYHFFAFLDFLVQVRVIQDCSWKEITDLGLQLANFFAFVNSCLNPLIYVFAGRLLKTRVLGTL
In words: Functional study on the bradykinin receptor 1 (B1R), FLIPR Ca2+ assay, rB1R cells. In kind it is cell-based. Particulars: agonist Des-Arg9-bradykinin 100 nM, % inhibition compared with the maximum achievable inhibition; for inhibition at 10 µM: CHO-K1, test substance 10 μM, read-out: B1R Antagonism, rat [10 μM] % Inhibition. The gist of the method:
(§1)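 FLIPR Ca2+ read-out (Fluo-4, peak fluorescence) in stably transfected CHO K1 cells. Compounds at 10 μM, then 10 min later agonist challenge: human B1R with Lys-Des-Arg9-bradykinin 0.5 nM, rat B1R with Des-Arg9-bradykinin 100 nM; reported as % activation or % of maximal inhibition.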

The target of a further assay is T2, human B1R receptor (Homo sapiens, UniProt P46663).
T2 construct: host or cells: CHO K1 cells (Chinese hamster ovary), stably transfected
T2 sequence (P46663 1-353): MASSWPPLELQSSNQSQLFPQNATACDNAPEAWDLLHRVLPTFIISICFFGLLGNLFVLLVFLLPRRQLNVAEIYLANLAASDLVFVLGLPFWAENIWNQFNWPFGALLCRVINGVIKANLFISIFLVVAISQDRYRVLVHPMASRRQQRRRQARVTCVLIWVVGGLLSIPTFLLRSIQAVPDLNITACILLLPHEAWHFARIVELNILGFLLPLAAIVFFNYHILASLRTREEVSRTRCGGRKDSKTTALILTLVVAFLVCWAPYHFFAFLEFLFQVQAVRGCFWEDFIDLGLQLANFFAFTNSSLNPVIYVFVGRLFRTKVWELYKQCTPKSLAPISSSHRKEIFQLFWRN
In words: Functional study on the bradykinin receptor 1 (B1R), FLIPR Ca2+ assay, hB1R cells. The assay is classed as cell-based. As to conditions: agonist Lys-Des-Arg9-bradykinin 0.5 nM, % inhibition compared with the maximum achievable inhibition; for inhibition at 10 µM: CHO-K1, test substance 10 μM, read-out: B1R Antagonism, human [10 μM] % Inhibition. Summed up:
as §1

Turning to `O=C(COCC1CCCCN1S(=O)(=O)c1c(Cl)cc(Cl)cc1Cl)NCc1ccc(N2CCCCC2)cc1` (centres unmarked) [Example 74, N-(4-piperidin-1-yl-benzyl)-2-[1-(2,4,6-trichloro-phenylsulfonyl)-piperidin-2-yl-methoxy]-acetamide], the inhibition (as a rule, the drop in the measured response relative to a control, in per cent) at 10 µM on B1R receptor of the rat turned out to be 103%; on human B1R receptor it was 50.4%.

Take `COc1ccc(S(=O)(=O)N2c3ccccc3CC2COCC(=O)N2CCN(CCn3c(C)ccc3C)CC2)cc1` (centres unmarked) [Example 548, 1-(4-(2-(2,5-dimethyl-1H-pyrrol-1-yl)ethyl)piperazin-1-yl)-2-((1-(4-methoxyphenylsulfonyl)indolin-2-yl)methoxy)ethanone]: the inhibition at 10 µM was determined as 95.4% at B1R receptor of the rat and 24.7% on human B1R receptor.

For the compound `COc1cc(C)c(S(=O)(=O)N2CCCCC2COCC(=O)N2CCN(Cc3c(C)cc(C)cc3C)CC2)c(C)c1` (centres unmarked) [Example 383, 2-((1-(4-methoxy-2,6-dimethylphenylsulfonyl)piperidin-2-yl)methoxy)-1-(4-(2,4,6-trimethylbenzyl)piperazin-1-yl)ethanone], the inhibition at 10 µM came out at 102% at B1R receptor of the rat and 40.2% on human B1R receptor.

For `Cc1cc(C)c(S(=O)(=O)N2Cc3ccccc3CC2COCC(=O)NCc2ccc(CN3CCCC3)cc2)c(C)c1` (centres unmarked) [Example 83, N-(4-pyrrolidin-1-ylmethyl-benzyl)-2-[2-(2,4,6-trimethyl-phenylsulfonyl)-1,2,3,4-tetrahydro-isoquinolin-3-ylmethoxy]-acetamide], the inhibition at 10 µM was determined as 30.8% at B1R receptor of the rat and 43.9% on human B1R receptor.

Turning to `COc1cc(C)c(S(=O)(=O)N2CCCCC2COCC(=O)N2CCCC2c2ccccn2)c(C)c1` (centres unmarked) [Example 247, 2-((1-(4-methoxy-2,6-dimethylphenylsulfonyl)piperidin-2-yl)methoxy)-1-(2-(pyridin-2-yl)pyrrolidin-1-yl)ethanone], the inhibition at 10 µM stood at 96.8% at B1R receptor of the rat and 70.8% on human B1R receptor.

Take `COc1ccc(S(=O)(=O)N2c3ccccc3CCC2COCC(=O)N2CCN(C3CCN(C)CC3)CC2)cc1` (centres unmarked) [Example 204, 2-((1-(4-methoxyphenylsulfonyl)-1,2,3,4-tetrahydroquinolin-2-yl)methoxy)-1-(4-(1-methylpiperidin-4-yl)piperazin-1-yl)ethanone]: the inhibition at 10 µM on B1R receptor of the rat was found to be 99%; on human B1R receptor, 105%.

As to `COc1cc(C)c(S(=O)(=O)N2CC[C@H]2COCC(=O)N2CCN(C3CCN(C)CC3)CC2)c(C)c1` [Example 135, (S)-2-((1-(4-methoxy-2,6-dimethylphenylsulfonyl)azetidin-2-yl)methoxy)-1-(4-(1-methylpiperidin-4-yl)piperazin-1-yl)ethanone], the inhibition at 10 µM at B1R receptor of the rat stood at 98.3%; at human B1R receptor it was 103%.

As to `O=C(COCC1CCCN1S(=O)(=O)c1c(Cl)cccc1Cl)N1CCCCC1Cc1ccncc1` (centres unmarked) [Example 453, 2-((1-(2,6-dichlorophenylsulfonyl)pyrrolidin-2-yl)methoxy)-1-(2-(pyridin-4-ylmethyl)piperidin-1-yl)ethanone], the inhibition at 10 µM is 74.4% on B1R receptor of the rat and 40.5% at human B1R receptor.

Regarding `COc1cc(C)c(S(=O)(=O)N2CCCC2COCC(=O)NCc2ccccc2N2CCN(C)CC2)c(C)c1` (centres unmarked) [Example 473, 2-((1-(4-methoxy-2,6-dimethylphenylsulfonyl)pyrrolidin-2-yl)methoxy)-N-(2-(4-methylpiperazin-1-yl)benzyl)acetamide], the inhibition at 10 µM at B1R receptor of the rat came to 99.5%; at human B1R receptor, 94.6%.

Turning to `COc1cc(C)c(S(=O)(=O)N2CCCCC2COCC(=O)N2CC[C@@H](N(C)C)C2)c(C)c1` (stereo partly drawn) [Example 363, 1-((R)-3-(dimethylamino)pyrrolidin-1-yl)-2-((1-(4-methoxy-2,6-dimethylphenylsulfonyl)piperidin-2-yl)methoxy)ethanone], the inhibition at 10 µM at B1R receptor of the rat worked out at 101%; at human B1R receptor, 90.7%.

Turning to `COc1ccc(C2CCCCN2C(=O)COCC2CCCCN2S(=O)(=O)c2c(C)cc(C)cc2C)cn1` (centres unmarked) [Example 227, 2-((1-(mesitylsulfonyl)piperidin-2-yl)methoxy)-1-(2-(6-methoxypyridin-3-yl)piperidin-1-yl)ethanone], the inhibition at 10 µM was 94.5% on B1R receptor of the rat and 26.9% on human B1R receptor.

As to `COc1cc(C)c(S(=O)(=O)N2CCCC2COCC(=O)N2CCC(N3CCN(C)CC3)CC2)c(C)c1` (centres unmarked) [Example 267, 2-((1-(4-methoxy-2,6-dimethylphenylsulfonyl)pyrrolidin-2-yl)methoxy)-1-(4-(4-methylpiperazin-1-yl)piperidin-1-yl)ethanone], the inhibition at 10 µM turned out to be 95.2% on B1R receptor of the rat and 104% on human B1R receptor.

For `O=C(COCC1CCCN1S(=O)(=O)c1c(Cl)cc(Cl)cc1Cl)N1CCN(c2ccncc2)CC1` (centres unmarked) [Example 335, 1-(4-(pyridin-4-yl)piperazin-1-yl)-2-((1-(2,4,6-trichlorophenylsulfonyl)pyrrolidin-2-yl)methoxy)ethanone], the inhibition at 10 µM at B1R receptor of the rat turned out to be 99.8%; at human B1R receptor it was 106%.

Turning to `COc1cc(C)c(S(=O)(=O)N2CCCCC2COCC(=O)N2CCN(C3CCC(C)CC3)CC2)c(C)c1` (centres unmarked) [Example 105, 2-((1-(4-methoxy-2,6-dimethylphenylsulfonyl)piperidin-2-yl)methoxy)-1-(4-(4-methylcyclohexyl)piperazin-1-yl)ethanone], the results for the inhibition at 10 µM on B1R receptor of the rat and at human B1R receptor were 100% and 106%, respectively.

Regarding `COc1cc(C)c(S(=O)(=O)N2CCCCC2COCC(=O)N2Cc3ccncc3C2)c(C)c1` (centres unmarked) [Example 206, 2-((1-(4-methoxy-2,6-dimethylphenylsulfonyl)piperidin-2-yl)methoxy)-1-(1H-pyrrol[3,4-c]pyridin-2(3H)-yl)ethanone], the “B1R Antagonism, rat [10 μM] % Inhibition” value at B1R receptor of the rat (test substance 10 μM, rB1R CHO K1 cells) is on record as 99.49%. Besides, on human B1R receptor (test substance 10 μM, hB1R CHO K1 cells), the “B1R Antagonism, human [10 μM] % Inhibition” value is 53.94%.

With `CN1CCN(c2ccc(CNC(=O)COCC3CCCCN3S(=O)(=O)c3c(Cl)cc(Cl)cc3Cl)cc2)CC1` (centres unmarked) [Example 13, N-[4-(4-methyl-piperazin-1-yl)-benzyl]-2-[1-(2,4,6-trichloro-phenylsulfonyl)-piperidin-2-ylmethoxy]-acetamide], the inhibition at 10 µM at B1R receptor of the rat turned out to be 113%; at human B1R receptor, 97.7%.

Regarding `COc1cc(C)c(S(=O)(=O)N2CCCCC2COCC(=O)NCc2cccc(Oc3cnccn3)c2)c(C)c1` (centres unmarked) [Example 195, 2-((1-(4-methoxy-2,6-dimethylphenylsulfonyl)piperidin-2-yl)methoxy)-N-(3-(pyrazin-2-yloxy)benzyl)acetamide], the inhibition at 10 µM on B1R receptor of the rat worked out at 98.8%; on human B1R receptor, 85.1%.

On to `O=C(COCC1CCCCN1S(=O)(=O)c1c(Cl)cccc1Cl)N1CCC(N2CCCC2)CC1` (centres unmarked) [Example 443, 2-((1-(2,6-dichlorophenylsulfonyl)piperidin-2-yl)methoxy)-1-(4-(pyrrolidin-1-yl)piperidin-1-yl)ethanone], for which the values for the inhibition at 10 µM at B1R receptor of the rat and on human B1R receptor were 99.3% and 104%, respectively.

Turning to `Cc1cc(C)c(S(=O)(=O)N2CCCCC2COCC(=O)N2CCC(N3CCCCC3)CC2)c(C)c1` (centres unmarked) [Example 225, 1-(1,4′-bipiperidin-1′-yl)-2-((1-(mesitylsulfonyl)piperidin-2-yl)methoxy)ethanone], the values for the inhibition at 10 µM on B1R receptor of the rat and on human B1R receptor were 84.1% and 104%, respectively.

For the compound `O=C(COCC1CCCCN1S(=O)(=O)c1c(Cl)cccc1Cl)N1CCCN(Cc2ccccc2)CC1` (centres unmarked) [Example 529, 1-(4-benzyl-1,4-diazepan-1-yl)-2-((1-(2,6-dichlorophenylsulfonyl)piperidin-2-yl)methoxy)ethanone], the inhibition at 10 µM at B1R receptor of the rat was found to be 101%; on human B1R receptor, 106%.

Take `O=C(COCC1Cc2ccccc2N1S(=O)(=O)c1ccc(Cl)c(Cl)c1)NCc1ccc(CN2CCCC2)cc1` (centres unmarked) [Example 81, 2-[1-(3,4-dichloro-phenylsulfonyl)-2,3-dihydro-1H-indol-2-ylmethoxy]-N-(4-pyrrolidin-1-ylmethyl-benzyl)-acetamide]: the inhibition at 10 µM is 34.1% on B1R receptor of the rat and 44.9% on human B1R receptor.

Regarding `COc1cc(C)c(S(=O)(=O)N2CCCC2COCC(=O)N2CCN(c3cc(Cl)ccc3C)CC2)c(C)c1` (centres unmarked) [Example 311, 1-(4-(5-chloro-2-methylphenyl)piperazin-1-yl)-2-((1-(4-methoxy-2,6-dimethylphenylsulfonyl)pyrrolidin-2-yl)methoxy)ethanone], the inhibition at 10 µM at B1R receptor of the rat stood at 103%; at human B1R receptor, 94.9%.
